Measurements from patent US20260159486A1, “BENZO[H]QUINAZOLINE-4-AMINE DERIVATIVES FOR THE TREATMENT OF CANCER” (Redona Therapeutics, Inc., priority 2021, published 2026).

Experiments:
recombinant human CLK3 = biological target: T1, recombinant human CLK3 (Homo sapiens, UniProt P49761); test: CLK3 kinase assay (LANCE Ultra); format: biochemical; conditions: CLK3 0.5 nM, ATP 300 μM, 3 hours at 30° C.
T1 construct: purchased Thermo Fisher Scientific PV3826
Procedure, shortened: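 Recombinant human CLK3 (0.5 nM) with ULight-CREBtide (50 nM) and 300 μM ATP, 3 h at 30 °C in kinase buffer; EDTA stop, then Eu-anti-phospho-CREB antibody (2 nM, 1 h RT), TR-FRET read at 665/620 nm. Inhibition normalized to DMSO and no-ATP wells; IC50 from 4-parameter fit, ten 1:3 concentrations in duplicate.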

[1] = system: phospho-SRSF6 in MDA-MB-468 cells; test: Inhibition of phospho-SRSF6 levels in MDA-MB-468 cells (Western blot); format: cell-based; conditions: Homo sapiens, 2 hours, compared to DMSO control; for inhibition at 0.01 µM: 10 nM, read-out: >50% p-SRSF6 reduction at 10 nM; for inhibition at 0.1 µM: 100 nM, read-out: >50% p-SRSF6 reduction at 100 nM
Protocol: FIG. 1: FIG. 1 provides a representative Western blot showing reduction of phosphorylated-SRSF6 (P—SRSF6) in MDA-MB 468 cells by compounds of the invention. GAPDH was probed for by Western blotting to control for equal protein loading and for normalization of samples. The numbers below the blots show percent inhibition of the P—SRSF6 signal at 100 nM (A) or 10 nM (B) compared to DMSO control.
Assessment of Inhibition of Phospho-SRSF6 Levels in MDA-MB-468 Cells
MDA-MB-468 cells (ATCC, HTB-132) were cultured in DMEM (BioConcept cat. no. 1-26F03) supplemented with 10% FBS (Sigma cat. no. F9665), […] (Sigma cat. no. S8636), 1% Penicillin-Streptomycin (BioConcept cat. no. 4-01FOO-H). When cells reached a density of 70% o in 6-well plates (TPP cat. no. 92006), they were treated either with the test compound vehicle DMSO, or with experimental compounds at a final concentration of either 10 or 100 nM for 2 hours. Thereafter, the culture medium was removed and cells were collected by scraping in Lysis Buffer (20 mM Tris HCl pH7.5, 150 mM NaCl, 1 mM EGTA, 1 mM EDTA, 1% o Triton and 1% o NP-40) containing protease and phosphatase inhibitors (Halt™ Protease&Phosphatase inhibitor cocktail 100× ThermioScientific cat. no. 1861281) and 1 mM PMSF (Fluka cat. no. 93482). Cleared lysates were stored in Eppendorfftubes at −80° C. until use, and protein concentration in lysates was determined using Pierce 660 nm Protein Assay Reagent (ThermioScientific cat. no. 22660). 20 μg proteins were diluted in 4× Laemmli buffer (Biorad cat. no. 161-0747) containing 10% beta-mercaptoethanol, separated by SDS-PAGE using 10% gels, and then transferred to PVDF membranes (Trans Blot Turbo Transfer Pack BioRad cat. no. 1704156) by Trans-Blot® Turbo™ System semidry blotting methodology (BioRad). Primary antibodies were incubated in TBS-0.1% Tween-20 buffer containing 3% BSA Bovine Albumin Fr.V (Millipore cat. no. 81-053-3) overnight at 4° C. The following primary antibodies were used: Mouse anti-phosphoepitope SR proteins clone 1H4 (Millipore cat. no. MABE50) diluted 1:5000, and rabbit anti-GAPDH clone 14C10 (Cell Signaling cat. no. 2118S) to control for equal protein loading, diluted 1:2000. HRP-conjugated secondary antibodies were incubated one hour at room temperature diluted 1:5000 in TBS-0.1% Tween-20 buffer containing […] nonfat-dried bovine milk (Sigma cat. no. M7409). The following secondary antibodies were used: Goat anti-mouse-HRP (Jackson cat. no. 115-035-146) and goat anti-rabbit-HRP (Jackson cat. no. 111-035-144). Membranes were incubated with ECL Prime Western Blot Detection Reagent (Amersham cat. no. RPN2236) to detect specific signals using Fusion SOLO S device (Vilber Lourmat). Pixel intensity of the phopsho-SRSF6 (MW 55 kDa in reference to markers) and GAPDH (MW 37 kDa) signals in the Western blots were determined using Evolution-Capt image analysis software (v17.01, Vilber Lourmat). DMSO control was used to set the phospho-SRSF6 signal at baseline, phospho-SRSF6 signals for each sample were normalized by the respective GAPDH signals and percent intensity of P—SRSF6 signal at 10 and 100 nM compound compared to DMSO control was calculated (see FIG. 1).

CAL-51 cells = test: CAL-51 proliferation assay; format: cell-based; conditions: Homo sapiens, CAL-51, 72 h, YO-PRO-1 Iodide readout
Procedure, shortened: (§1)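 Cells seeded at 750 per well, treated next day for 72 h at 37 °C with 0.5% final DMSO. Cell number read by YO-PRO-1 fluorescence after lysis, normalized to DMSO (100%) and time-zero cells (0%). GI50 from 4-parameter logistic fit, maximum constrained to 100%.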

MDA-MB-231 cells = test: MDA-MB-231 proliferation assay; format: cell-based; conditions: Homo sapiens, MDA-MB-231, 72 h, YO-PRO-1 Iodide readout
Procedure, shortened: as §1

T1 sequence (P49761 whole entry): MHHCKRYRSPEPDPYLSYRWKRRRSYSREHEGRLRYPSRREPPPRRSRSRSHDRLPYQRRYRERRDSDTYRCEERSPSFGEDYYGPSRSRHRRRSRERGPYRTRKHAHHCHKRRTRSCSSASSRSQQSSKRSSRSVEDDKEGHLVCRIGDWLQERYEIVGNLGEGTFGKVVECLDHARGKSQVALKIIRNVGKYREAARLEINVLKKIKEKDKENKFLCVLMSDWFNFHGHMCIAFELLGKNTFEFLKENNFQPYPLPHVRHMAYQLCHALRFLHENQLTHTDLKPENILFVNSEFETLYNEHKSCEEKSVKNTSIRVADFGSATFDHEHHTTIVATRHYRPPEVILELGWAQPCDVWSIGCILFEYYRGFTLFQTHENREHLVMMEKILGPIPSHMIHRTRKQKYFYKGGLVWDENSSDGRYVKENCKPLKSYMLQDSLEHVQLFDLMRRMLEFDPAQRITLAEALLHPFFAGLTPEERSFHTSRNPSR

Structure (SMILES) | IC50 (recombinant human CLK3) | inhibition at 0.01 µM [1] | inhibition at 0.1 µM [1] | GI50 (CAL-51 cells) | GI50 (MDA-MB-231 cells)
CN(CC(C)(C)O)c1c(O[C@H]2CC[C@H](N)CC2)ccc2c1CC(C)(C)c1c(N)ncnc1-2 [Example 40, 1-[[4-amino-8-(trans-4-aminocyclohexoxy)-5,5-dimethyl-6H-benzo[h]quinazolin-7-yl]-methyl-amino]-2-methyl-propan-2-ol] | 30 to 100 nM | > 50% | > 50% | < 100 nM | 100 to 2000 nM
CN(CC#N)c1c(O[C@H]2CC[C@@H](N)CC2)ccc2c1CC(C)(C)c1c(N)ncnc1-2 [Example 30, 2-[[4-amino-8-(cis-4-aminocyclohexoxy)-5,5-dimethyl-6H-benzo[h]quinazolin-7-yl]-methyl-amino]acetonitrile] | < 30 nM | > 50% | > 50% | < 100 nM | < 100 nM
CN(C)c1c(O[C@H]2CC[C@H](N)CC2)ccc2c1CC(C)(C)c1c(N)ncnc1-2 [Example 20, 8-(trans-4-aminocyclohexoxy)-N7,N7,5,5-tetramethyl-6H-benzo[h]quinazoline-4,7-diamine] | < 30 nM | > 50% | > 50% | < 100 nM | < 100 nM
CC1(C)Cc2c(ccc(O[C@H]3CC[C@H](N)CC3)c2-n2cccc2)-c2ncnc(N)c21 [Example 17, 8-(trans-4-aminocyclohexoxy)-5,5-dimethyl-7-pyrrol-1-yl-6H-benzo[h]quinazolin-4-amine] | < 30 nM | < 50% | > 50% | < 100 nM | < 100 nM
Nc1ncnc2c1C1(CCCC1)Cc1c-2ccc(O[C@H]2CC[C@H](N)CC2)c1N [Example 37, 8-(trans-4-aminocyclohexoxy)spiro[6H-benzo[h]quinazoline-5,1′-cyclopentane]-4,7-diamine] | 30 to 100 nM | > 50% | > 50% | < 100 nM | 100 to 2000 nM
